# Tests used:
# COLO 205 = test: Antiproliferative activity against human COLO205 cells; assay type: functional, cell-based
# K562 = test: Antiproliferative activity against human K562 cells; assay type: functional, cell-based
# T47D = test: Antiproliferative activity against human T47D cells; assay type: functional, cell-based
# CCD-18Co = test: Cytotoxicity against human CCD-18Co cells; assay type: cell-based
# [1] = Selectivity index, ratio of IC50 for human CCD-18Co cells to IC50 for human COLO 205 cells
# [2] = Selectivity index, ratio of IC50 for human CCD-18Co cells to IC50 for human K562 cells
# [3] = Selectivity index, ratio of IC50 for human CCD-18Co cells to IC50 for human T47D cells
SMILES,IC50 (COLO 205) [nM],IC50 (K562) [nM],IC50 (T47D) [nM],IC50 (CCD-18Co) [nM],Ratio IC50 [1],Ratio IC50 [2],Ratio IC50 [3]
CC(C)(C)OC(=O)N1CCN(C(=O)COC2=CC(=O)c3c(O)cccc3C2=O)CC1,2300,1200,800,,,,
O=C(COC1=CC(=O)c2c(O)cccc2C1=O)NCCCCCCO,2800,3300,3300,,,,
CC(C)(C)OC(=O)NCCNC(=O)COC1=CC(=O)c2c(O)cccc2C1=O,1400,1100,100,,,,
O=C1NC2CSC(CCCCC(=O)N3CCN(C(=O)COC4=CC(=O)c5ccccc5C4=O)CC3)C2N1 (centres undefined),2300,1500,1200,,,,
CC(C)(C)OC(=O)NCC(CCCCNC(=O)COC1=CC(=O)c2c(O)cccc2C1=O)NC(=O)OC(C)(C)C (centres undefined),1600,1100,1100,,,,
CCCCCCCNC(=O)COC1=CC(=O)c2c(O)cccc2C1=O,> 10000,5700,4600,,,,
NCCCCC(CN)CNC(=O)COC1=CC(=O)c2c(O)cccc2C1=O (centres undefined),7300,> 10000,9600,,,,
NCCCCCCNC(=O)COC1=CC(=O)c2c(O)cccc2C1=O.O=C(O)C(F)(F)F,800,800,600,8600,>10,>10,>10
O=C(CCCCC1SCC2NC(=O)NC21)NCCCCCCNC(=O)COC1=CC(=O)c2c(O)cccc2C1=O (centres undefined),1400,1100,500,9200,>10,>10,>10
NCCNC(=O)COC1=CC(=O)c2c(O)cccc2C1=O,4700,4100,2800,,,,
O=C(CCCCC1SCC2NC(=O)NC21)NCCNC(=O)COC1=CC(=O)c2c(O)cccc2C1=O (centres undefined),> 10000,,> 10000,,,,
CC(C)(C)OC(=O)NCCCCC(CNC(=O)COC1=CC(=O)c2c(O)cccc2C1=O)NC(=O)OC(C)(C)C (centres undefined),3100,1300,1400,,,,
COC(=O)CCCCCNC(=O)COC1=CC(=O)c2c(O)cccc2C1=O,4400,4900,3600,,,,
CC(C)(C)OC(=O)NCCCCCCNC(=O)COC1=CC(=O)c2c(O)cccc2C1=O,1300,1000,300,7300,>10,>10,>10
NCCCCCCNC(=O)COC1=CC(=O)c2ccccc2C1=O,> 10000,> 10000,6500,,,,
NCC(CN)CCCCNC(=O)COC1=CC(=O)c2c(O)cccc2C1=O,5300,5100,6100,,,,
CC(=O)NCCCCCCNC(=O)COC1=CC(=O)c2c(O)cccc2C1=O,2400,2300,1200,,,,
O=C(O)C(F)(F)F.O=C1C(OCC(=O)N2CCNCC2)=CC(=O)c2c(O)cccc21,800,500,600,8900,>10,>10,>10
CC(C)(C)OC(=O)NCCCCCCNC(=O)COC1=CC(=O)c2ccccc2C1=O,> 10000,6700,> 10000,,,,
CC(C)(C)OC(=O)NCC(CCCCNC(=O)COC1=CC(=O)c2c(O)cccc2C1=O)CNC(=O)CCCCC1SCC2NC(=O)NC21 (racemic),,> 10000,7900,,,,
NCCCC(=O)NCCCCNC(=O)COC1=CC(=O)c2c(O)cccc2C1=O.O=C(O)C(F)(F)F.O=C(O)C(F)(F)F,1200,1700,1700,8300,>10,>10,>10
O=C(CCCCC1SCC2NC(=O)NC21)NCCCCCCNC(=O)COC1=CC(=O)c2ccccc2C1=O (centres undefined),> 10000,> 10000,1800,,,,

# From ChEMBL document CHEMBL4673292, “Design, synthesis and anticancer activity of 2-amidomethoxy-1,4-naphthoquinones and its conjugates with Biotin/polyamine” (Bioorg Med Chem Lett, 2021)
